Reference: ChEMBL document CHEMBL1201862, “PubChem BioAssay data set” (2004)
The source made the active and inactive calls.

Legend:
[1] = Counterscreen for AddAB inhibitors: absorbance-based bacterial cell-based high throughput dose response assay for inhibitors of bacterial viability. [Related pubchem assays (depositor defined):AID435030, AID449728, AID449731, AID488942, AID488955, AID488956]; assay type: functional
[2] = target: T1, Exodeoxyribonuclease V (Escherichia coli (strain K12), UniProt P04993+P07648+P08394); experiment: RecBCD inhibition via phage-restricted bacterial growth – absorbance, V66 E. coli, mutant T4 phage, counter-screen for AddAB inhibitor project, dose response (AID 492957); assay type: functional, cell-based, Escherichia coli str. K-12 substr. MG1655
T1 sequence (P04993 whole entry): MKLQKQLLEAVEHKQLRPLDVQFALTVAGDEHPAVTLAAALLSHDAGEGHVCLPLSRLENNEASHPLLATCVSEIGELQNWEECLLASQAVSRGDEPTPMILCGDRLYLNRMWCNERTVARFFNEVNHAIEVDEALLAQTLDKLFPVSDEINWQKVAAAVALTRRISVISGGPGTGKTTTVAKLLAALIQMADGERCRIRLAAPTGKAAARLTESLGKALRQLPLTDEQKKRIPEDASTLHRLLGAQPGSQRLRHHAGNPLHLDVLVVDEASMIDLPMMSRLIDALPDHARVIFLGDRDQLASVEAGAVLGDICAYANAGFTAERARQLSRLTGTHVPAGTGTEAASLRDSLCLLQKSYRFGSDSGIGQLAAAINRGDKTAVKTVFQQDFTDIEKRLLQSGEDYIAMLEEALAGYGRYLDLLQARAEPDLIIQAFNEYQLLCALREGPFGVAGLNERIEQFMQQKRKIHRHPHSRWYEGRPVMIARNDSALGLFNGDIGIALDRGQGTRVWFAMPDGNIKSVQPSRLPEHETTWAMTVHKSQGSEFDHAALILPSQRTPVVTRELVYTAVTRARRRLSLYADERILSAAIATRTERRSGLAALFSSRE
T1 sequence (P07648 whole entry): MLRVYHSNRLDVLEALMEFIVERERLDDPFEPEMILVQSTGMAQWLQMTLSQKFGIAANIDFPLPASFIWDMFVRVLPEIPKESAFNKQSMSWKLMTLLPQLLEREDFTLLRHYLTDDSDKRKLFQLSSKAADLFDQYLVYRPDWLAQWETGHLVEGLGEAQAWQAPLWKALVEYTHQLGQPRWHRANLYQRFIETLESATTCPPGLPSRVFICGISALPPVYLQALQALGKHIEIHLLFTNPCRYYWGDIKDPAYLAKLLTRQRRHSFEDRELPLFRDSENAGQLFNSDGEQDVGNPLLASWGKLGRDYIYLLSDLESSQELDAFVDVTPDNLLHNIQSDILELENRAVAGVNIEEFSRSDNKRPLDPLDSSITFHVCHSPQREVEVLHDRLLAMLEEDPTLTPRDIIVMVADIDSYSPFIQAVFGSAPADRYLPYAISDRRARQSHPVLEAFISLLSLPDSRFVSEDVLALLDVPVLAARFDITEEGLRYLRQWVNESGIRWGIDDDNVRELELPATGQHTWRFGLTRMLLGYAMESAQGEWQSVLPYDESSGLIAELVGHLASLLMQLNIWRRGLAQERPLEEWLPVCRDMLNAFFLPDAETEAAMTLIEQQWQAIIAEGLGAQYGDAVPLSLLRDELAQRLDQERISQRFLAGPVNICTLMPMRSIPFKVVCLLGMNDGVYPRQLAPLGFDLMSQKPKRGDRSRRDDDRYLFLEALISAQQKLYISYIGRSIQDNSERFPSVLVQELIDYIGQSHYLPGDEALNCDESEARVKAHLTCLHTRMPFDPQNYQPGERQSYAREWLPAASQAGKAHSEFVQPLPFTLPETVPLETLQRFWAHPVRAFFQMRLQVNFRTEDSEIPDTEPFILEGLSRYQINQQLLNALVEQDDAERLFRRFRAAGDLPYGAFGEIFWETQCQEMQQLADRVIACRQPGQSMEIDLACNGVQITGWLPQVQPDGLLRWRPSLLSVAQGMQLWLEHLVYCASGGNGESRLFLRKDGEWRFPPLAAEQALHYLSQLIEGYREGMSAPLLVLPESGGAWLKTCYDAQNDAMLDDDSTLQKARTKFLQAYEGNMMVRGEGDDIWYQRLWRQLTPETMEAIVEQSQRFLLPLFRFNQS
T1 sequence (P08394 whole entry): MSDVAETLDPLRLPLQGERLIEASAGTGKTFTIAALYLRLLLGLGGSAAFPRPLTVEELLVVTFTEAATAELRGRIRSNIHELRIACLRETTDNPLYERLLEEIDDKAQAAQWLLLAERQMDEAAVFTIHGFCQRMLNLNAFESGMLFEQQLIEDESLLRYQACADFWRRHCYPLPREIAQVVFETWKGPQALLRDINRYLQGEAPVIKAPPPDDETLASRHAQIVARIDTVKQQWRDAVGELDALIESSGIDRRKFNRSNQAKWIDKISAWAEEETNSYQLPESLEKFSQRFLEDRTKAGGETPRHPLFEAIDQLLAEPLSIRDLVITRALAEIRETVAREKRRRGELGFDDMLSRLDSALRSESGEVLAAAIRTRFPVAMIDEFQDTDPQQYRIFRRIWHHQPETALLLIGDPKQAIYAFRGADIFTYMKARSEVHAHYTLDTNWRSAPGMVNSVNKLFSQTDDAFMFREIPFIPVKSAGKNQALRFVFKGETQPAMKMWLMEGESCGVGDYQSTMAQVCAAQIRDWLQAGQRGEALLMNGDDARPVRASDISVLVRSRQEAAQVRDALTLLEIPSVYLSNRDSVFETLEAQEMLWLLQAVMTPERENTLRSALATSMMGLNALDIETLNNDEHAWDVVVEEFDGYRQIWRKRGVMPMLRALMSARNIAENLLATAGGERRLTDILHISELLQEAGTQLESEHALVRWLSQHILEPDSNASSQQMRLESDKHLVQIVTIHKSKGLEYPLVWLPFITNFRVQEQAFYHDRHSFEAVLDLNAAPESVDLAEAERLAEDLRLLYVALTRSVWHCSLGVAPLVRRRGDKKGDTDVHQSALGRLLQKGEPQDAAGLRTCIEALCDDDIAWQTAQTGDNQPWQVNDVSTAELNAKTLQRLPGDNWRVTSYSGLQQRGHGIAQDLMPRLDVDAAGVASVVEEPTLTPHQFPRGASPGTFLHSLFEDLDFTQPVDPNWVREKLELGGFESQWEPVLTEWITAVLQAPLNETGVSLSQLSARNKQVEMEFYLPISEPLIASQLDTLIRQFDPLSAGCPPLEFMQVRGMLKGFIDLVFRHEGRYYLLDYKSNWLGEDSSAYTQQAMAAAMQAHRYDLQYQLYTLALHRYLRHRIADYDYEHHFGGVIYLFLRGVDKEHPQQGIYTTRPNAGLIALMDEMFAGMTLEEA

[3] = system: INS1; experiment: INS-1E survival protection against cytokine death – cell-based, luminescence, retest, dose response (AID 449756); assay type: functional; details: Rattus norvegicus;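 also: cell death triggered by IL-1 beta plus TNF-alpha plus IFN-gamma mixture; protective hits raise ATP signal compared with cytokine alone wells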
[4] = target: Intestinal-type alkaline phosphatase (Homo sapiens, UniProt P09923); experiment: activation of human intestinal alkaline phosphatase – biochemical, luminescent, uHTS hits, set 2, dose response (AID 488817); assay type: functional;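 also: potency of activators that raise enzyme activity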
Sequence of Intestinal-type alkaline phosphatase (P09923 whole entry): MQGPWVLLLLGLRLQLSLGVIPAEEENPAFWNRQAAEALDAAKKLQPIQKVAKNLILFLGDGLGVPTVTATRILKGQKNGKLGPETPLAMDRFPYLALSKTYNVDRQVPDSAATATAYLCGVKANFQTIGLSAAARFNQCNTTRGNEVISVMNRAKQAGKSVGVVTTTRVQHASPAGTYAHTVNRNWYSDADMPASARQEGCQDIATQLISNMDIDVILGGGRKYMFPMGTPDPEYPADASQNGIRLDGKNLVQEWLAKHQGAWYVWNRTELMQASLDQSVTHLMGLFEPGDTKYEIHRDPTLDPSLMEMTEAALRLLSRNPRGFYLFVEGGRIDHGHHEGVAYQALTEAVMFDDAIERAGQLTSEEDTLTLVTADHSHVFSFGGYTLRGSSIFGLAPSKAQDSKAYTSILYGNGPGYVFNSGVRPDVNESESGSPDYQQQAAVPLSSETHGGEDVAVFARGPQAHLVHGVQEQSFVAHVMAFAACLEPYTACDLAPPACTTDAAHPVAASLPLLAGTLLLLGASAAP

SMILES | IC50 [1] | IC50 [2] | AC50 [3] | EC50 [4]
Cc1onc(-c2ccccc2)c1C(=O)NC(=S)NNC(=O)c1ccc(O)cc1O | > 39.5 µM (inactive) | > 39.5 µM (inactive) | 3.95 µM (active) | 
O=C(N/N=C/c1ccc(O)cc1O)C(=O)N/N=C/c1ccc(O)cc1O | > 119 µM (inactive) | > 119 µM (inactive) |  | 4.56 µM (active)
